Assay results: patent US20140271734A1, “BILE ACID RECYCLING INHIBITORS FOR TREATMENT OF BARRETT'S ESOPHAGUS AND GASTROESOPHAGEAL REFLUX DISEASE” (LUMENA PHARMACEUTICALS, INC., priority 2013, published 2014)
Marks after values point to notes of the source that are not given here.

How the values were obtained:
[1] = test system: serum total bile acid (SBA); experiment: Duration of action of LUM001 on dog SBA, Method 1 (two meals); type: in vivo, beagle dogs; conditions: 0.2 mg/kg p.o. at 1 hr; full meal 0 hr, half meal 4 hr; 4.5 hr
Method: Male beagle dogs were obtained from Covance Research Products, Cumberland Va. or Marshall Farms USA, Inc., North Rose N.Y. A total of 20 dogs, 1 to 5 years old, 6.8 to 15.6 kg body weight, were used in these experiments. The dogs were conditioned to a 12 hour light/dark cycle and maintained on a feeding restriction of 1 hour per day access to food (Richman Standard Certified Canine Diet #5007, PMI Nutrition, Inc., St. Louis Mo.) from 7 to 8 AM. They were trained to eat a special meal promptly within 20 minutes when presented (1 can. 397 g, Evanger's 100% Beef for Dogs, Evanger's Dog and Cat Food Co., Inc., Wheeling Ill., mixed with 50 g of sharp cheddar cheese.).
SBA was measured by an enzymatic assay. SBA values are expressed as μg of total bile acids/ml of serum.
In dogs a single experimental meal produces a postprandial rise in SBA that is elevated to a peak at 1 hour after feeding and constant for an additional 3 hours. Previous experiments (2) indicate that LUM001 remains active for more than 4.5 hours. To measure the duration of action of an ASBT inhibitor using postprandial SBA levels requires that in the control situation the SBA levels remain elevated and constant for the entire period of compound action, or that the compound be administered long before the postprandial rise occurs, and remain active in the empty digestive system for long periods before feeding. […]

[2] = Single-dose [14C]LUM001 oral solution: radioactivity in plasma, blood, urine, feces; type: in vivo, human
Method: This was an open-label, one-period, single-dose study of a [^14C]LUM001 oral solution. Eight healthy male subjects received an oral solution of 5 mg [^14C]LUM001 (containing approximately […] per dose). Blood samples were collected at predose and for 72 hours postdose, urine samples were collected predose and for 168 hours postdose and feces were collected predose and for 216 hours postdose. Plasma, whole blood, urine and fecal samples were analyzed for total radioactivity, and selected fecal samples were analyzed for LUM001 and relevant metabolite concentrations. In addition, metabolic profiles in selected fecal samples were obtained using high performance liquid radio chromatography (HPLRC).

[3] = test system: fecal excretion of [14C]taurocholic acid (TCA); experiment: Fecal excretion of [14C]taurocholic acid in hamsters, LUM002; type: in vivo, Syrian hamster; conditions: oral gavage in two half doses, feces collected 24 hours, n=4 nonfasted hamsters per group
Method: To study the effect of LUM002 on fecal excretion of [^14C]taurocholic acid (TCA) in the Syrian hamster in vivo, [^14C]TCA was administered intraperitoneally 1 hour before dosing the test compound. Each animal was dosed with 1 μCi [^14C]TCA. LUM002 was dosed by oral gavage (5 mL/kg per administration) in either 5% (v/v) Solutol with 0.5% hydroxyethylcellulose (HEC) or 0.5% HEC alone. The first half of dose of test compound/vehicle was given 1 hour after [^14Cl]TCA injection, followed by the second half of dose 7 hours after the first dose of test compound/vehicle. Feces were collected for 24 hours after [^14Cl]TCA administration and aliquots from feces were combusted for determination of [^14Cl] excretion.
The ED200 (dose which doubles the fecal excretion of [^14Cl] label vs. control from dose response curve, including 95% Confidence interval) was calculated from a dose response curve.

[4] = 5 mg [14C]LUM001 oral solution, eight healthy male subjects
[5] = 5 mg [14C]LUM001 oral solution, analyte in feces

SMILES: CCCCC1(CCCC)CS(=O)(=O)c2ccc(N(C)C)cc2[C@@H](c2ccc(OCc3ccc(C[N+]45CCN(CC4)CC5)cc3)cc2)[C@H]1O [LUM001]
- Serum Bile Acid, mean [1]: 2.5* μg/ml
- Fecal radioactivity associated with unchanged free LUM001 ([2]; 5 mg [14C]LUM001 oral solution): 94%
- Radioactive dose detected in plasma, whole blood or urine [2, 4]: Less than 1%
- Total radioactive dose detected in feces [2, 4]: 72%
- Mean Percent of Dose in Feces [2, 5]: 65.0%
- Percent of Fecal Radioactivity [2, 5]: 94.4%
- Cumulative % of Total Dose ([2]; Feces incl. Toilet Paper (cumulative recovery in toilet paper from first five fecal samples)): 72.466%
- Cumulative % of Total Dose ([2]; Feces, 0-24 hr): 30.376%
- Cumulative % of Total Dose ([2]; Feces, 24-48 hr): 49.878%
- Cumulative % of Total Dose ([2]; Feces, 48-72 hr): 67.630%
- Cumulative % of Total Dose ([2]; Feces, 72-96 hr): 69.653%
- Cumulative % of Total Dose ([2]; Feces, 96-120 hr): 71.606%
- Cumulative % of Total Dose ([2]; Feces, 120-144 hr): 71.771%
- Cumulative % of Total Dose ([2]; Feces, 144-168 hr): 71.815%
- Cumulative % of Total Dose ([2]; Feces, 168-192 hr): 71.885%
- Cumulative % of Total Dose ([2]; Feces, 192-216 hr): 71.885%
- Radioactive Concentration ([2]; Plasma, 0.5 hr): BLQ
- Radioactive Concentration ([2]; Plasma, 1 hr): BLQ
- Radioactive Concentration ([2]; Plasma, 1.5 hr): BLQ
- Radioactive Concentration ([2]; Plasma, 2 hr): BLQ
- Radioactive Concentration ([2]; Plasma, 2.5 hr): BLQ
- Radioactive Concentration ([2]; Plasma, 3 hr): BLQ
- Radioactive Concentration ([2]; Plasma, 4 hr): BLQ
- Radioactive Concentration ([2]; Plasma, 6 hr): BLQ
- Radioactive Concentration ([2]; Plasma, 8 hr): BLQ
- Radioactive Concentration ([2]; Plasma, 12 hr): BLQ
- Radioactive Concentration ([2]; Plasma, 16 hr): 0.000 ng equivalents/mL
- Radioactive Concentration ([2]; Plasma, 24 hr): BLQ
- Radioactive Concentration ([2]; Plasma, 36 hr): 0.000 ng equivalents/mL
- Radioactive Concentration ([2]; Plasma, 48 hr): BLQ
- Radioactive Concentration ([2]; Plasma, 60 hr): BLQ
- Radioactive Concentration ([2]; Plasma, 72 hr): BLQ
- Cumulative % of Total Dose ([2]; Total (Urine and Feces)): 72.532%
- Cumulative % of Total Dose ([2]; Urine, 0-2 hr): 0.005%
- Cumulative % of Total Dose ([2]; Urine, 2-4 hr): 0.012%
- Cumulative % of Total Dose ([2]; Urine, 4-8 hr): 0.028%
- Cumulative % of Total Dose ([2]; Urine, 8-12 hr): 0.041%
- Cumulative % of Total Dose ([2]; Urine, 12-24 hr): 0.058%
- Cumulative % of Total Dose ([2]; Urine, 24-48 hr): 0.057%
- Cumulative % of Total Dose ([2]; Urine, 48-72 hr): 0.062%
- Cumulative % of Total Dose ([2]; Urine, 72-96 hr): 0.063%
- Cumulative % of Total Dose ([2]; Urine, 96-120 hr): 0.063%
- Cumulative % of Total Dose ([2]; Urine, 120-144 hr): 0.064%
- Cumulative % of Total Dose ([2]; Urine, 144-168 hr): 0.066%
- Radioactive Concentration ([2]; Whole Blood, 1 hr): 0.000 ng equivalents/g
- Radioactive Concentration ([2]; Whole Blood, 4 hr): 0.000 ng equivalents/g
- Radioactive Concentration ([2]; Whole Blood, −0.5 hr): 0.000 ng equivalents/g

SMILES: CCCC[C@]1(CC)CS(=O)(=O)c2ccc(N(C)C)cc2[C@@H](c2cccc(NC(=O)N[C@@H]3O[C@H](COS(=O)(=O)[O-])[C@@H](O)[C@H](OCc4ccccc4)[C@H]3O)c2)[C@H]1O.CCO.O.[K+] [LUM002, potassium((2R,3R,4S,5R,6R)-4-benzyloxy-6-{3-[3-((3S,4R,5R)-3-butyl-7-dimethylamino-3-ethyl-4-hydroxy-1,1-dioxo-2,3,4,5-tetrahydro-1H-benzo[b]thiepin-5-yl)-phenyl]-ureido}-3,5-dihydroxy-tetrahydro-pyran-2-ylmethyl)sulphate ethanolate, hydrate]
- Fecal excretion of bile acids ([14C]TCA label) [3]: significantly increased fecal excretion of bile acids
